Laboratory results published in publication PMC10762035, “Molecular basis of human trace amine-associated receptor 1 activation” (Nature Communications, 2024).
Substitutions are numbered along the chain they refer to. “And” between values parts separate entries of the source, which are not always exact repeats. Equal entries are not always repeated.

Key:
Type in all cases: cell-based
hTA1 = molecular target: T1, hTA1 (Homo sapiens, UniProt Q96RJ0); test: GloSensor cAMP accumulation assay, concentration response, wild-type hTA1 in transfected HEK293T cells;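 note: luminescence read after 30 min compound exposure at room temperature in cells preloaded with D-Luciferin, reflecting Gs-driven cAMP rise, efficacy scaled to the maximal β-PEA response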
T1 construct: expressed in transfected cells; host or cells: HEK293T
T1 sequence (Q96RJ0 1-339): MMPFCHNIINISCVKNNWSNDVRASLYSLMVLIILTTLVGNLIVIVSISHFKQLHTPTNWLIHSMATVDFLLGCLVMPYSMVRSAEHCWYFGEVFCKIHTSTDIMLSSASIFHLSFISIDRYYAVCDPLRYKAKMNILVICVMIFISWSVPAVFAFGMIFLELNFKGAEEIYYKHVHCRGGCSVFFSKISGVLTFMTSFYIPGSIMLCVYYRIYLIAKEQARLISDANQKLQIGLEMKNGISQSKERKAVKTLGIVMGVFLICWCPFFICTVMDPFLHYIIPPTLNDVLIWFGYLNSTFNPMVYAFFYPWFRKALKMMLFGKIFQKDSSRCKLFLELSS

hTA1 b2N = molecular target: T2, hTA1 b2N (Homo sapiens, UniProt Q96RJ0); test: GloSensor cAMP accumulation assay, b2N construct; conditions: b2N, n=2
T2 construct: read by me as the first 25 residues of β2AR (N); expressed in transfected cells; host or cells: HEK293T

hTA1 C88S = molecular target: T3, hTA1 C88S (Homo sapiens, UniProt Q96RJ0, C88S); test: GloSensor cAMP accumulation assay, C88S mutant; conditions: C88S
T3 construct: expressed in transfected cells; host or cells: HEK293T
T3 sequence (Q96RJ0 1-339 C88S): T1 sequence (Q96RJ0 1-339) with C88S

hTA1 S107C = molecular target: T4, hTA1 S107C (Homo sapiens, UniProt Q96RJ0, S107C); test: GloSensor cAMP accumulation assay, S107C mutant;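 note: cells transiently co-expressing receptor and GloSensor biosensor, luminescence read after 30 min agonist exposure at room temperature, concentration-response fitted by nonlinear regression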
T4 construct: expressed in transfected cells; host or cells: HEK293T
T4 sequence (Q96RJ0 1-339 S107C): T1 sequence (Q96RJ0 1-339) with S107C

hTA1 V184P = molecular target: T5, hTA1 V184P (Homo sapiens, UniProt Q96RJ0, V184P); test: GloSensor cAMP accumulation assay, V184P mutant; conditions: for cAMP accumulation response, single replicate values (source data, Supplementary Figure 5): hTA1 V184P (N=2), log[Compound]
T5 construct: expressed in transfected cells; host or cells: HEK293T
T5 sequence (Q96RJ0 1-339 V184P): T1 sequence (Q96RJ0 1-339) with V184P

T2 sequence (Q96RJ0 with tags, fused parts or gaps): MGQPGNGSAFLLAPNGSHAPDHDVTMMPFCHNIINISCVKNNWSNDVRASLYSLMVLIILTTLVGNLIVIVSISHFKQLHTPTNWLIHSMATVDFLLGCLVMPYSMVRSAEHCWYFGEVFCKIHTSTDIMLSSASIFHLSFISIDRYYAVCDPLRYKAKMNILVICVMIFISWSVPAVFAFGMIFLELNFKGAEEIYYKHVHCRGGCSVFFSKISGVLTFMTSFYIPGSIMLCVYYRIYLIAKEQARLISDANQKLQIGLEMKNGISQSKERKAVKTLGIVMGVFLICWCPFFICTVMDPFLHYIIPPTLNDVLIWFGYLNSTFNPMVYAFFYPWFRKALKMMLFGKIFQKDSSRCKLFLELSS

SMILES: Cc1c(F)cccc1[C@H]1COC(N)=N1 [Ro5263397]
- pEC50 values, Avg (hTA1; WT hTA1, average of the two experiments, Figure 2B source data): 8.831
- pEC50 values, Mean (hTA1; WT hTA1, each line an independent experiment, 3 replicates, Figure 2B source data): 8.992 and 8.671
- Emax values, Mean (hTA1; WT hTA1, β-PEA = 100, each line an independent experiment, 3 replicates): 87.687 and 85.7197
- Emax values, Avg (hTA1; WT, average of the experiments, β-PEA = 100): 86.7
- Emax values, Avg (hTA1; WT, average of the two experiments): 86.7
- Emax values, Mean (hTA1; WT, mean of each independent experiment (3 replicates), β-PEA = 100): 87.687 and 85.7197
- Emax values, Mean (hTA1; WT, single experiments (3 replicates each), β-PEA = 100): 87.687 and 85.7197
- pEC50 ± SEM (hTA1; wt hTA1, HEK293T, n=3): 8.83 ± 0.09
- EC50 (hTA1; wt hTA1, HEK293T, n=3, read-out: EC50): 1.47 nM and 1.48 nM
- Emax (hTA1; wt hTA1, relative to β-PEA): 86.7%
- Span ± SEM (Emax normalized to β-PEA) (hTA1 b2N): 78.31 ± 9.88
- pEC50 ± SEM (hTA1 b2N): 9.18 ± 0.09
- EC50 (hTA1 b2N; read-out: EC50): 0.66 nM
- Emax values (hTA1 C88S; Mean of fit per experiment): 109.361 and 91.1412
- Span ± SEM (Emax normalized to β-PEA) (hTA1 C88S; n=2): 100.25 ± 9.11
- pEC50 ± SEM (hTA1 C88S; n=2): 8.78 ± 0.06
- EC50 (hTA1 C88S; n=2, read-out: EC50): 1.64 nM
- Emax (hTA1 C88S; relative to β-PEA): 100.3%
- decrease in potency vs wild type (hTA1 S107C; S107C): approximately 100 fold
- ΔEmax values (each mutant value - WT average) (hTA1 S107C; S107C mutant minus WT average): 21.9095
- pEC50 values, Mean (hTA1 S107C; S107C mutant, each line an independent experiment, 3 replicates): 7.847 and 7.402
- Emax values, Mean (hTA1 S107C; S107C mutant, β-PEA = 100, each line an independent experiment, 3 replicates): 108.613 and 99.8921
- Span ± SEM (Emax normalized to β-PEA) (hTA1 S107C; S107C, n=2): 112.19
- pEC50 ± SEM (hTA1 S107C; S107C, n=2): 6.61 ± 0.80
- EC50 (hTA1 S107C; S107C, n=2, read-out: EC50): 248 nM
- Span ± SEM (Emax normalized to β-PEA) (hTA1 V184P; V184P, n=2): 67.49 ± 4.18
- pEC50 ± SEM (hTA1 V184P; V184P, n=2): 8.72 ± 0.1
- EC50 (hTA1 V184P; V184P, n=2, read-out: EC50): 1.89 nM
- cAMP accumulation response, single replicate values (source data, Supplementary Figure 5) (hTA1 V184P; M = -5): 75.9826 and 54.4514 and 68.5146 and 68.2232 and 103.41 and 63.2018
- cAMP accumulation response, single replicate values (source data, Supplementary Figure 5) (hTA1 V184P; M = -5.522): 60.8526 and 56.6821 and 51.6388 and 54.9916 and 88.8585 and 75.7736
- cAMP accumulation response, single replicate values (source data, Supplementary Figure 5) (hTA1 V184P; M = -6): 62.1134 and 62.7923 and 57.749 and 52.2793 and 90.2146 and 61.0026
- cAMP accumulation response, single replicate values (source data, Supplementary Figure 5) (hTA1 V184P; M = -6.522): 55.2273 and 58.8159 and 63.0833 and 59.17 and 90.5079 and 61.9556
- cAMP accumulation response, single replicate values (source data, Supplementary Figure 5) (hTA1 V184P; M = -7): 76.2736 and 57.458 and 63.8592 and 78.4492 and 93.4034 and 75.9935
- cAMP accumulation response, single replicate values (source data, Supplementary Figure 5) (hTA1 V184P; M = -7.522): 63.0833 and 60.2707 and 53.2876 and 78.6325 and 73.831 and 68.1499
- cAMP accumulation response, single replicate values (source data, Supplementary Figure 5) (hTA1 V184P; M = -8): 45.7226 and 42.0371 and 33.6962 and 79.732 and 85.8896 and 81.3081
- cAMP accumulation response, single replicate values (source data, Supplementary Figure 5) (hTA1 V184P; M = -8.522): 24.6764 and 22.5426 and 25.9372 and 54.0753 and 61.6257 and 60.123
- cAMP accumulation response, single replicate values (source data, Supplementary Figure 5) (hTA1 V184P; M = -9): 15.8505 and 15.9475 and 14.9776 and 42.9696 and 48.944 and 40.6972
- cAMP accumulation response, single replicate values (source data, Supplementary Figure 5) (hTA1 V184P; M = -9.522): 5.57 and 4.794 and 3.436 and 18.8157 and 20.0985 and 19.2188
- cAMP accumulation response, single replicate values (source data, Supplementary Figure 5) (hTA1 V184P; M = -10): -0.05538 and 0.9145 and 0.6235 and 8.626 and 10.7888 and 9.213
- cAMP accumulation response, single replicate values (source data, Supplementary Figure 5) (hTA1 V184P; M = -10.522): -0.8313 and -0.6373 and -1.025 and 2.3587 and 2.835 and 2.469
- cAMP accumulation response, single replicate values (source data, Supplementary Figure 5) (hTA1 V184P; M = -11): -0.6373 and -0.7343 and -1.316 and 1.442 and 2.102 and 1.039
- cAMP accumulation response, single replicate values (source data, Supplementary Figure 5) (hTA1 V184P; M = -11.522): -1.025 and -1.607 and -1.51 and 0.1962 and 0.9659 and -0.5735
- cAMP accumulation response, single replicate values (source data, Supplementary Figure 5) (hTA1 V184P; M = -12): -0.9283 and -1.122 and -1.4132 and 19.5854 and 20.7216 (2×)
- cAMP accumulation response, single replicate values (source data, Supplementary Figure 5) (hTA1 V184P; M = -12.522): -1.316 and -1.219 and -0.9283 and 4.704 and 5.621 and 6.281
- pEC50 values, Mean (hTA1 V184P; hTA1 V184P mutant, Figure 3B source data, each grid row a separate experiment, 3 replicates): 8.393 and 9.05
- Emax values, Mean (hTA1 V184P; hTA1 V184P mutant, β-PEA set to 100, each grid row a separate experiment, 3 replicates): 63.3156 and 71.6719
